Assays:
[1] = target: Kinesin-like protein KIF11 (Homo sapiens, UniProt P52732); test: Inhibition of human Eg5
A549 [2] = test: Induction of apoptosis in human A549 cells assessed as caspase3 expression at 7.4 uM after 2 hrs by ELISA (reference value: 53.45 ng/ml); format: functional
A549 [3] = test: Induction of apoptosis in human A549 cells assessed as caspase9 expression at 7.4 uM after 2 hrs by ELISA (reference value: 0.1726 ng/ml); format: functional
A549 [4] = test: Cell cycle arrest in human A549 cells assessed as accumulation of cells at G0/G1 phase at 2 uM after 24 hrs by propidium iodide staining-based flow cytometric analysis (reference value: 67.62%); format: functional
A549 [5] = test: Cell cycle arrest in human A549 cells assessed as accumulation of cells at S phase at 2 uM after 24 hrs by propidium iodide staining-based flow cytometric analysis (reference value: 25.26%); format: functional
A549 [6] = test: Cell cycle arrest in human A549 cells assessed as accumulation of cells at G2/M phase at 2 uM after 24 hrs by propidium iodide staining-based flow cytometric analysis (reference value: 6.2%); format: functional
A549 [7] = test: Cell cycle arrest in human A549 cells assessed as accumulation of cells at pre-G1 phase at 2 uM after […] by propidium iodide staining-based flow cytometric analysis (reference value: 0.92%); format: functional
A549 [8] = test: Induction of apoptosis in human A549 cells assessed as viable cells at 2 uM after 24 hrs by Annexin V-FITC/propidium iodide staining-based flow cytometric analysis (reference value: 97.5%); format: functional; conditions: A549, 24 h, read-out: Activity
A549 [9] = test: Induction of apoptosis in human A549 cells assessed as early apoptotic cells at 2 uM after 24 hrs by Annexin V-FITC/propidium iodide staining-based flow cytometric analysis (reference value: 0.52%); format: functional
A549 [10] = test: Induction of apoptosis in human A549 cells assessed as late apoptotic cells at 2 uM after 24 hrs by Annexin V-FITC/propidium iodide staining-based flow cytometric analysis (reference value: 0.33%); format: functional
A549 [11] = test: Induction of apoptosis in human A549 cells assessed as necrotic cells at 2 uM after 24 hrs by Annexin V-FITC/propidium iodide staining-based flow cytometric analysis (reference value: 0.07%); format: functional
A549 [12] = test: Induction of apoptosis in human A549 cells 24 hrs by propidium iodide staining-based flow cytometric analysis (reference value: 0.92%); format: functional
MCF7 [13] = test: Cytotoxicity against human MCF7 cells after 24 hrs by MTT assay; format: functional, cell-based; conditions: MCF7, 24 h
MRC5 = test: Cytotoxicity against human MRC5 cells; format: cell-based
BJ = test: Cytotoxicity against human BJ cells; format: cell-based
[14] = Cytotoxicity against human WPE1-NA22 cells; format: cell-based
[15] = target: Vascular endothelial growth factor receptor 2 (Homo sapiens, UniProt P35968)
Sequence of Vascular endothelial growth factor receptor 2 (P35968 whole entry): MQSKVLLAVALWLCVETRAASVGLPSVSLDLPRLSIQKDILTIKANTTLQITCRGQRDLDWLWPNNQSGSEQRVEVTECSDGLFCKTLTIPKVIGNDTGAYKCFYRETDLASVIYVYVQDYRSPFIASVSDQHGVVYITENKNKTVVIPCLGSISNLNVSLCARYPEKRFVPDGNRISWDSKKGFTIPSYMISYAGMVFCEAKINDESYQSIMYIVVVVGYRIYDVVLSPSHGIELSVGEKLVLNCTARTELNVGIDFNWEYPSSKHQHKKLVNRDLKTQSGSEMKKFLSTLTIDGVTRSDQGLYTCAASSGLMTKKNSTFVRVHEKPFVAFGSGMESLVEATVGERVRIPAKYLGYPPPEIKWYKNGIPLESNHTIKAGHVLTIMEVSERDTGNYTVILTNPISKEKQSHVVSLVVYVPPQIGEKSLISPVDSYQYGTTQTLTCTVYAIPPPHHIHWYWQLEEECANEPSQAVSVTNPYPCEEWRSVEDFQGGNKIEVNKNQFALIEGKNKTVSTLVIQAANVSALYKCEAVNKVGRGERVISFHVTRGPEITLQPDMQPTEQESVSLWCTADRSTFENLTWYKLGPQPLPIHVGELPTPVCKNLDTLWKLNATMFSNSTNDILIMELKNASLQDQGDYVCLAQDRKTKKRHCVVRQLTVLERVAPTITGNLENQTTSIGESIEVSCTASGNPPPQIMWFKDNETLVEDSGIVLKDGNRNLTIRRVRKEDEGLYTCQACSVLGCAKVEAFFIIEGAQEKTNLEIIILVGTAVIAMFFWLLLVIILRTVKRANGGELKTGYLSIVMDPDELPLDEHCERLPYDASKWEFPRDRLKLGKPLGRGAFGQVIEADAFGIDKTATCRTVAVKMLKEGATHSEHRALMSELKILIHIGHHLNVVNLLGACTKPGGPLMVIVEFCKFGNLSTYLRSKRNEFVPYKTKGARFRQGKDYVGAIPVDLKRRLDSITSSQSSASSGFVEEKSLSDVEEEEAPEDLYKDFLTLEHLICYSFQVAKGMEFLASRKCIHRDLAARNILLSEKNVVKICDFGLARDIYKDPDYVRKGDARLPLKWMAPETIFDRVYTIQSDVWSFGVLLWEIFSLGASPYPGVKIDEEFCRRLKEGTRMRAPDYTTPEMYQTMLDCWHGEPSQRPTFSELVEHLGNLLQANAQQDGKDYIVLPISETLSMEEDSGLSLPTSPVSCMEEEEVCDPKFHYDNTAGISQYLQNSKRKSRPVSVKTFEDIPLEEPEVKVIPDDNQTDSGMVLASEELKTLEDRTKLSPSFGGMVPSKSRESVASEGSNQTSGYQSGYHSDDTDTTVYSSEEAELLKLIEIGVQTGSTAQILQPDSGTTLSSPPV
Description: Inhibition of human VEGFR-2 incubated for 2.5 hrs by ELISA

[16] = target: T1, Serine/threonine-protein kinase mTOR (Homo sapiens, UniProt P42345); test: Inhibition of mTOR (unknown origin) incubated for 1 hr by ELISA relative to control; conditions: concentration not given here
[17] = target: T1, Serine/threonine-protein kinase mTOR; test: Inhibition of mTOR (unknown origin) incubated for 1 hr by ELISA
HeLa = test: Cytotoxicity against human HeLa cells; format: functional, cell-based
PC-3 [18] = test: cells; conditions: Homo sapiens, PC-3, 24 h
Description: Cytotoxicity against human PC3 cells after 24 hrs by MTT assay

HCT-116 [19] = test: cells; conditions: Homo sapiens, HCT-116, 24 h
Description: Cytotoxicity against human HCT116 cells after 24 hrs by MTT assay

K562 = test: Antiproliferative activity against human K562 cells assessed as growth inhibition at 10 uM after 48 hrs by sulforhodamine B assay relative to control; format: functional; conditions: K562, 48 h, read-out: GI
MOLT-4 = test: Antiproliferative activity against human MOLT4 cells assessed as growth inhibition at 10 uM after 48 hrs by sulforhodamine B assay relative to control; format: functional; conditions: MOLT-4, 48 h, read-out: GI
SR = test: Antiproliferative activity against human SR cells assessed as growth inhibition at 10 uM after 48 hrs by sulforhodamine B assay relative to control; format: functional; conditions: read-out: GI
HL-60(TB) = test: Antiproliferative activity against human HL-60(TB) cells assessed as growth inhibition at 10 uM after 48 hrs by sulforhodamine B assay relative to control; format: functional; conditions: HL-60, 48 h, read-out: GI
A549 [20] = test: Antiproliferative activity against human A549/ATCC cells assessed as growth inhibition at 10 uM after 48 hrs by sulforhodamine B assay relative to control; format: functional; conditions: A549, 48 h, read-out: GI
NCI-H322M = test: Antiproliferative activity against human NCI-H322M cells assessed as growth inhibition at 10 uM after 48 hrs by sulforhodamine B assay relative to control; format: functional; conditions: read-out: GI
NCI-H522 = test: Antiproliferative activity against human NCI-H522 cells assessed as growth inhibition at 10 uM after 48 hrs by sulforhodamine B assay relative to control; format: functional; conditions: NCI-H522, 48 h, read-out: GI
NCI-H460 = test: Antiproliferative activity against human NCI-H460 cells assessed as growth inhibition at 10 uM after 48 hrs by sulforhodamine B assay relative to control; format: functional; conditions: NCI-H460, 48 h, read-out: GI
HCT-116 [21] = test: Antiproliferative activity against human HCT116 cells assessed as growth inhibition at 10 uM after 48 hrs by sulforhodamine B assay relative to control; format: functional; conditions: HCT-116, 48 h, read-out: GI
HCT-15 = test: Antiproliferative activity against human HCT15 cells assessed as growth inhibition at 10 uM after 48 hrs by sulforhodamine B assay relative to control; format: functional; conditions: HCT-15, 48 h, read-out: GI
SF-295 = test: Antiproliferative activity against human SF295 cells assessed as growth inhibition at 10 uM after 48 hrs by sulforhodamine B assay relative to control; format: functional; conditions: SF-295, 48 h, read-out: GI
LOX IMVI = test: Antiproliferative activity against human LOXIMVI cells assessed as growth inhibition at 10 uM after 48 hrs by sulforhodamine B assay relative to control; format: functional; conditions: read-out: GI
UACC-62 = test: Antiproliferative activity against human UACC62 cells assessed as growth inhibition at 10 uM after 48 hrs by sulforhodamine B assay relative to control; format: functional; conditions: UACC-62, 48 h, read-out: GI
SK-MEL-5 = test: Antiproliferative activity against human SK-MEL-5 cells assessed as growth inhibition at 10 uM after 48 hrs by sulforhodamine B assay relative to control; format: functional; conditions: SK-MEL-5, 48 h, read-out: GI
OVCAR-4 = test: Antiproliferative activity against human OVCAR4 cells assessed as growth inhibition at 10 uM after 48 hrs by sulforhodamine B assay relative to control; format: functional; conditions: OVCAR-4, 48 h, read-out: GI
NCI/ADR-RES = test: Antiproliferative activity against human NCI/ADR-RES cells assessed as growth inhibition at 10 uM after 48 hrs by sulforhodamine B assay relative to control; format: functional; conditions: read-out: GI
ACHN = test: Antiproliferative activity against human ACHN cells assessed as growth inhibition at 10 uM after 48 hrs by sulforhodamine B assay relative to control; format: functional; conditions: read-out: GI
CAKI-1 = test: Antiproliferative activity against human Caki1 cells assessed as growth inhibition at 10 uM after 48 hrs by sulforhodamine B assay relative to control; format: functional; conditions: CAKI-1, 48 h, read-out: GI
UO-31 = test: Antiproliferative activity against human UO31 cells assessed as growth inhibition at 10 uM after 48 hrs by sulforhodamine B assay relative to control; format: functional; conditions: UO-31, 48 h, read-out: GI
PC-3 [22] = test: Antiproliferative activity against human PC3 cells assessed as growth inhibition at 10 uM after 48 hrs by sulforhodamine B assay relative to control; format: functional; conditions: PC-3, 48 h, read-out: GI
MCF7 [23] = test: Antiproliferative activity against human MCF7 cells assessed as growth inhibition at 10 uM after 48 hrs by sulforhodamine B assay relative to control; format: functional; conditions: MCF7, 48 h, read-out: GI
T47D = test: Antiproliferative activity against human T47D cells assessed as growth inhibition at 10 uM after 48 hrs by sulforhodamine B assay relative to control; format: functional; conditions: read-out: GI
MDA-MB-468 = test: Antiproliferative activity against human MDA-MB-468 cells assessed as growth inhibition at 10 uM after 48 hrs by sulforhodamine B assay relative to control; format: functional; conditions: MDA-MB-468, 48 h, read-out: GI
A549 [24] = test: Induction of apoptosis in human A549 cells assessed as caspase3 expression at 3.04 uM after 2 hrs by ELISA (reference value: 53.45 ng/ml); format: functional
A549 [25] = test: Induction of apoptosis in human A549 cells assessed as caspase9 expression at 3.04 uM after 2 hrs by ELISA (reference value: 0.1726 ng/ml); format: functional
A549 [26] = test: Potency index, ratio of compound activity to 5-FU activity for caspase3 expression in human A549 cells; format: functional
A549 [27] = test: Potency index, ratio of compound activity to 5-FU activity for caspase9 expression in human A549 cells; format: functional
NCI-H1299 = test: Cytotoxicity against human NCI-H1299 cells after 24 hrs by MTT assay; format: functional, cell-based; conditions: NCI-H1299, 24 h

Sequence of Kinesin-like protein KIF11 (P52732 whole entry): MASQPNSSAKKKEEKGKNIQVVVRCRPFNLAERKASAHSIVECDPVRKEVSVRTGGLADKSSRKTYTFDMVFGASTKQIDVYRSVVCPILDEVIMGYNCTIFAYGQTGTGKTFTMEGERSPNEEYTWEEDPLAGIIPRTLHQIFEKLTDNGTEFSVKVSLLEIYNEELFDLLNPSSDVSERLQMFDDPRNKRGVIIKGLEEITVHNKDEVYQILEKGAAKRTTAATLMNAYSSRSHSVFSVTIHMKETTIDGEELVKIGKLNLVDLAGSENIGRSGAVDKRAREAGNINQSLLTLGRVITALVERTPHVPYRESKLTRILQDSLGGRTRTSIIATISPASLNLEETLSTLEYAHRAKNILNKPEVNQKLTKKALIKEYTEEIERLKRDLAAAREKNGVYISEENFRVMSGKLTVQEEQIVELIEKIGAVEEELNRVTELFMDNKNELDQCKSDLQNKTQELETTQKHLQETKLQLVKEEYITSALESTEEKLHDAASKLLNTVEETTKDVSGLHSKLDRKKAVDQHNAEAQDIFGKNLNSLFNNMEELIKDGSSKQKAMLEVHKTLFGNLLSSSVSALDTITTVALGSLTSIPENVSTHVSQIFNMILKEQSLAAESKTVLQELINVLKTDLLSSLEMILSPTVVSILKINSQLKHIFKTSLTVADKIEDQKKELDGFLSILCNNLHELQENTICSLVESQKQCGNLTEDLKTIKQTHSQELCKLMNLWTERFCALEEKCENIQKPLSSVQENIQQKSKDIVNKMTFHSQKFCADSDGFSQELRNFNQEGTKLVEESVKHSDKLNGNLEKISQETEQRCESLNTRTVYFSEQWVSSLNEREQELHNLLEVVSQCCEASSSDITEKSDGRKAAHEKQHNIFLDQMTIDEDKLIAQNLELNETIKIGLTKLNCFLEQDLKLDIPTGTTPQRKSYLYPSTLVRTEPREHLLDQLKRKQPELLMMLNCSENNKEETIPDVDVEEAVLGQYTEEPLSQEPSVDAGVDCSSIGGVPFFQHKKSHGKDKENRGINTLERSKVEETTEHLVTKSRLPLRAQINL

CCOC(=O)C1=C(C)NC(=O)NC1c1cccc(O)c1 (stereo unspecified)
IC50 [1]: 14 µM

O=c1[nH]cc(F)c(=O)[nH]1 [FLUOROURACIL]
Activity (A549 [2]): 582.1 ng/mL
Activity (A549 [3]): 16.84 ng/mL
Activity (A549 [4]): 47.36%
Activity (A549 [5]): 16.08%
Activity (A549 [6]): 21.04%
Activity (A549 [7]): 15.52%
viability at 2 µM (A549 [8]): 82.7%
Activity (A549 [9]): 6.37%
Activity (A549 [10]): 6.59%
Activity (A549 [11]): 2.52%
Activity (A549 [12]): 15.52%

CCOC(=O)C1=C(CSc2nc3cc([N+](=O)[O-])ccc3[nH]2)N(C)C(=O)NC1c1ccccc1 (stereo unspecified)
IC50 (MCF7 [13]): 9.39 µM
IC50 (MRC5): 44.2 µM
IC50 (BJ): 37.5 µM
IC50 [14]: 21.7 µM
IC50 [15]: 1.2 µM
inhibition [16]: 84.6%
IC50 [17]: 0.72 µM
IC50 (HeLa): 1.4 µM
IC50 (PC-3 [18]): 9.18 µM
IC50 (HCT-116 [19]): 7.29 µM

CCOC(=O)C1=C(CSC(=S)N(C2CCCCC2)C2CCCCC2)N(C)C(=O)NC1c1ccccc1 (stereo unspecified)
inhibition of growth at 10 µM (K562): 65%
inhibition of growth at 10 µM (MOLT-4): 72%
inhibition of growth at 10 µM (SR): 71%
inhibition of growth at 10 µM (HL-60(TB)): 85%
inhibition of growth at 10 µM (A549 [20]): 53%
inhibition of growth at 10 µM (NCI-H322M): 9%
inhibition of growth at 10 µM (NCI-H522): 42%
inhibition of growth at 10 µM (NCI-H460): 88%
inhibition of growth at 10 µM (HCT-116 [21]): 74%
inhibition of growth at 10 µM (HCT-15): 61%
inhibition of growth at 10 µM (SF-295): 61%
inhibition of growth at 10 µM (LOX IMVI): 67%
inhibition of growth at 10 µM (UACC-62): 54%
inhibition of growth at 10 µM (SK-MEL-5): 86%
inhibition of growth at 10 µM (OVCAR-4): 56%
inhibition of growth at 10 µM (NCI/ADR-RES): 37%
inhibition of growth at 10 µM (ACHN): 63%
inhibition of growth at 10 µM (CAKI-1): 75%
inhibition of growth at 10 µM (UO-31): 56%
inhibition of growth at 10 µM (PC-3 [22]): 79%
inhibition of growth at 10 µM (MCF7 [23]): 54%
inhibition of growth at 10 µM (T47D): 50%
inhibition of growth at 10 µM (MDA-MB-468): 53%
IC50 (MRC5): 32 µM
IC50 (BJ): 18.2 µM
IC50 [14]: 32.1 µM
Activity (A549 [24]): 560.4 ng/mL
Activity (A549 [25]): 18.14 ng/mL
Ratio (A549 [26]): 10
Ratio (A549 [27]): 100
Activity (A549 [4]): 58.25%
Activity (A549 [5]): 21.95%
Activity (A549 [6]): 12.41%
Activity (A549 [7]): 7.39%
viability at 2 µM (A549 [8]): 90.7%
Activity (A549 [9]): 3.27%
Activity (A549 [10]): 3.31%
Activity (A549 [11]): 0.81%
Activity (A549 [12]): 7.39%
inhibition [16]: 86.6%
IC50 [17]: 0.64 µM
IC50 (HeLa): 1.85 µM

CCOC(=O)C1=C(C)Nc2nc3ccccc3n2C1c1c(O)ccc2ccccc12 (stereo unspecified)
IC50 (NCI-H1299): 40 µM
IC50 (PC-3 [18]): 37 µM

Source: ChEMBL document CHEMBL4270553, “Synthesis and anticancer activity of new dihydropyrimidinone derivatives” (Eur J Med Chem, 2018)
